Laboratory results published in patent US5846823A, “Expression of human D4 dopamine receptors in stable cell lines” (Allelix Biopharmaceuticals, priority 1996, dated 1998).

Molecular target: T1, human D4 receptor (Homo sapiens, UniProt P21917, DEL265-296)
T1 construct: expressed in transfected cells
T1 sequence (P21917 with tags, fused parts or gaps DEL265-296): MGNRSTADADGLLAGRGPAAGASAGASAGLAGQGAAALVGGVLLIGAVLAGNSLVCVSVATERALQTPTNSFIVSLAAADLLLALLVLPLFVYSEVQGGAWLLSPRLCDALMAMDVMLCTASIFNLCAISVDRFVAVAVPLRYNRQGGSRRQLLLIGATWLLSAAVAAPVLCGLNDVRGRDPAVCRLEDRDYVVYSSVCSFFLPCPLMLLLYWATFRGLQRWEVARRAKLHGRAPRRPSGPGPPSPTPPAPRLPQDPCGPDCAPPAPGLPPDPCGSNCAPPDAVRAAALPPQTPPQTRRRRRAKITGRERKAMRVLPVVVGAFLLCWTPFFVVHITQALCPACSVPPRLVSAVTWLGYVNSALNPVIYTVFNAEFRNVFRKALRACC
Assay: [3H]Spiperone ligand binding assay (Scatchard analysis) on membranes of stable D4 cell line
Conditions: stably expressed human D4 receptor, Scatchard analysis (FIG. 4)
Experimental: Cell membranes were prepared from 150 mM tissue culture dishes by suspending the cells in assay buffer [50 mM Tris-HCl, pH 7.4 containing 5 mM EDTA, 1.5 mM CaCl2, 5 mM MgCl2, 5 mM KCl, 120 NaCl]. The cells were homogenized using a Teflon pestle. Unbroken cells and nuclei were pelleted at 39,000×g for 15 minutes and the resulting pellet was resuspended in assay buffer at a concentration of 150-250 μg protein/ml.
Assays were terminated by washing 3×4 ml with cold 50 mM Tris-HCl, pH 7.4, followed by rapid filtration through a cell harvester and filters were monitored for tritium using the L56000SC (Beckman) counter. Binding data was analyzed using the GRAFIT software package.

maximum spiperone-binding of the D4 receptor: 4,344 fmol/mg protein
Structure (SMILES): O=C(CCCN1CCC2(CC1)C(=O)NCN2c1ccccc1)c1ccc(F)cc1 [[^3 H]-labelled spiperone, spiperone]
